Like-named read-outs stand apart in the source and are kept apart here.
How the values were obtained:
[1] = molecular target: T1, Ba/F3 cells containing Ros1 wild-type protein (Homo sapiens, UniProt P08922, cells depend on it, form not given); assay: Ba/F3-Ros1 cell proliferation assay, wild-type Ros1; assay type: cell-based, murine; details: without IL-3
T1 construct: The background only speaks of 'a number of different unrelated proteins' and names SLC34A2-ROS1 for HCC78 cells
In short: (§1)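 Ba/F3 cells expressing wild-type, L2026M or G2032R Ros1, 20000 cells/well in phenol red-free RPMI-1640 with 10% FBS, 2 mM L-glutamine, exposed to compound for 24 h at 37 °C, 5% CO2. Viability read by Alamar Blue (resazurin) fluorescence, ex 540/em 590 nm, after 4 h further incubation.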

[2] = test system: HCC78 non-small cell lung cancer cells; assay: HCC78 cell proliferation assay; assay type: cell-based; details: Homo sapiens, HCC78, 96 h, read-out: HCC-78 PROL pEC50 (converted)
In short: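 HCC78 NSCLC cells (~1000/well) in RPMI-1640 with 10% FBS were treated 24 h after seeding and exposed to compound for 4 days at 37 °C. Viability was read by MTT, with absorbance at 538 nm after DMSO/glycine solubilization.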

[3] = test system: Ros pY2274 in HCC78 cells; assay: pROS1 immunofluorescence assay in HCC78 cells; assay type: cell-based; details: Homo sapiens, read-out: HCC78-pRos1 pIC50 (converted)
Experimental: pROS1 Immunofluorescence Assay in HCC78 Cells
Approximately 20000 HCC78 non-small cell lung cancer cells in 180 μl of cell culture medium (RPMI-1640, 10% FBS, 2 mM L-Glutamine, 10 mM Hepes, 1 mM sodium pyruvate, 4.5 g/L glucose, 1.5 g/L sodium bicarbonate, 25 μg/ml Gentamycin) were seeded in each well of a 96-well polystyrene, poly-D-lysine coated plate and incubated at 37° C. and 5% CO2. After 24 hours, compounds were diluted in cell culture medium from which 20 μl was added to the wells containing cells and incubated for 4 hours at 37° C. and 5% CO2. The medium was removed and the cells were fixed by adding 100 μl of 5% formaldehyde in TBS (tris-buffered saline) (50 mM Tris.HCl, pH 7.4, 150 mM NaCl) and incubating for 15 minutes at room temperature. The formaldehyde was removed and replaced with methanol for 10 minutes at room temperature, after which the cells were washed 3 times with TBS containing 1% Triton X-100 and incubated in Odyssee (Li-Cor) blocking buffer for 1 hour at room temperature. The cells were then incubated with the primary rabbit antibody directed against Ros pY2274 (cst-3078) diluted 1/200 in blocking buffer for 24 hours at room temperature. The cells were washed three times with TBS containing 0.1% Triton X-100 and incubated with a secondary anti-rabbit antibody conjugated to the fluorescent dye Alexafluor 680 in blocking buffer for 1 hour at room temperature. The cells were washed three times with TBS containing 0.1% Triton X-100 and left to dry before measuring RFUs (Relative Fluorescence Units) at 700 nm using a fluorescence imager.
The same experiment was performed using total Ros1 antibody (sc-6347) diluted 1/1000 instead of Ros1 pY2274 antibody and an anti-goat antibody conjugated to IRDye800cw as a secondary antibody. RFUs were measured at […]. The signals from total Ros1 detection were used to normalize the Ros1 pY2274 values.

Ros1 enzyme = molecular target: T2, Ros1 enzyme (Homo sapiens, UniProt P08922); assay: Ros1 enzymatic assay; assay type: biochemical; details: Ros1 enzymatic assay; read-out: ROS1 pIC50 (converted)
T2 construct: 0.5 μg/ml Ros1 enzyme
T2 sequence (P08922 28-2347): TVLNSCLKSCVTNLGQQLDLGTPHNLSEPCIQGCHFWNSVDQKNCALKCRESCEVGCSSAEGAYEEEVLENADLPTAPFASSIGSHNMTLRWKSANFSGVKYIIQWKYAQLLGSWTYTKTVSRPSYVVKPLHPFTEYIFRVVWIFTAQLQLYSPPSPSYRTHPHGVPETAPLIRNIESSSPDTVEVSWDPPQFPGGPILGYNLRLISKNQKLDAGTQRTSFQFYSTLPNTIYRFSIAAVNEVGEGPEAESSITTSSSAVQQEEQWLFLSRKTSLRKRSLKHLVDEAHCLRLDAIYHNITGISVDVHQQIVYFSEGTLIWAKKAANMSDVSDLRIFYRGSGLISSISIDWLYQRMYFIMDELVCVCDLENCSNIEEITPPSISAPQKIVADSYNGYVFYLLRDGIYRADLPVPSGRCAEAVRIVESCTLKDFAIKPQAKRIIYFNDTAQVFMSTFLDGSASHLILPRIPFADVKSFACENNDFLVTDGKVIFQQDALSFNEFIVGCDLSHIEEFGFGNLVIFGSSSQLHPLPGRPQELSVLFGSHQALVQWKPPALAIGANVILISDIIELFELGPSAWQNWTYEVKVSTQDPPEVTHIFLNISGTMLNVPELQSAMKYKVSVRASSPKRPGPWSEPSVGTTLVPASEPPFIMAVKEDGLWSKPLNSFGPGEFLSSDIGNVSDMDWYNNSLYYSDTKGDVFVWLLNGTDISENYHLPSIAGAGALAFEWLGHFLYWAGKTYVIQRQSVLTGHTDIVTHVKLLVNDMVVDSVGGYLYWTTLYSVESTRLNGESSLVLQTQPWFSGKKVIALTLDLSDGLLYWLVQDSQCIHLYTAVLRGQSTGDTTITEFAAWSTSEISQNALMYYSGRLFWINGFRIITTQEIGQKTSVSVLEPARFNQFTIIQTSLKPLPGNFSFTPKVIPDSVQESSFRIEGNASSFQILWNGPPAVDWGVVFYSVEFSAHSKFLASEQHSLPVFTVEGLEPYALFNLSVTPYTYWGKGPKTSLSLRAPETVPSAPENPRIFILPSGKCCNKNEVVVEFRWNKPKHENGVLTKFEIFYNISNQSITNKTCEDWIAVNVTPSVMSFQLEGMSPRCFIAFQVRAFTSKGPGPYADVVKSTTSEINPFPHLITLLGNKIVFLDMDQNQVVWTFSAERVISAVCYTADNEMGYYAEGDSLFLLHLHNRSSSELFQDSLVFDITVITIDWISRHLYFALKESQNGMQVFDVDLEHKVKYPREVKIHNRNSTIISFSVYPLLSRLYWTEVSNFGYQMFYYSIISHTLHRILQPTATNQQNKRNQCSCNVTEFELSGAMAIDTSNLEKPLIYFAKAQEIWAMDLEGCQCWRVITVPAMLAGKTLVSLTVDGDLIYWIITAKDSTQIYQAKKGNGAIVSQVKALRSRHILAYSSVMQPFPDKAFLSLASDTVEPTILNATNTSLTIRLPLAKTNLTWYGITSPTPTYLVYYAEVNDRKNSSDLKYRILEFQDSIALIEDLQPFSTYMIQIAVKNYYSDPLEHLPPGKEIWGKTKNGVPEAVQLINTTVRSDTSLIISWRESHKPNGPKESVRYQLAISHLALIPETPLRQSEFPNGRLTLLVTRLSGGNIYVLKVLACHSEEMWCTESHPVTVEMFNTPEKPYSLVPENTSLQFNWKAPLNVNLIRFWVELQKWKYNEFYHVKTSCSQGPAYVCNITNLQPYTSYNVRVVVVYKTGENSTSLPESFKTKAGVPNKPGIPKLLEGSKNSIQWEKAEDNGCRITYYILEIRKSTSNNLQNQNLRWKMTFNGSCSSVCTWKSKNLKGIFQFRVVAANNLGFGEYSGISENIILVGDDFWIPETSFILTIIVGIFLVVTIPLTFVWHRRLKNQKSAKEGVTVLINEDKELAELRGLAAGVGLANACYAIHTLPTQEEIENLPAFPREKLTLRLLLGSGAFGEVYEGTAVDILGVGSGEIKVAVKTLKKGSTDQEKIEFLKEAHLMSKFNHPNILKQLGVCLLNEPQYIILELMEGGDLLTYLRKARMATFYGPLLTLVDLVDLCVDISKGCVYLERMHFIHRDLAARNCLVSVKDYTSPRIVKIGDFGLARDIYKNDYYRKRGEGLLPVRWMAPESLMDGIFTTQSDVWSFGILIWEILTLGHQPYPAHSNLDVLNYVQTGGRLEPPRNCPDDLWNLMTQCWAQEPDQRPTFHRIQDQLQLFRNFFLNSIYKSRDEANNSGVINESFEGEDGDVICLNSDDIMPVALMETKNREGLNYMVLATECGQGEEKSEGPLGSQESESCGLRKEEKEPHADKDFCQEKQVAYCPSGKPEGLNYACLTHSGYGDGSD
In short: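 Radiometric proximity read-out: 33P incorporated into IRS-Tide captured on streptavidin imaging beads and imaged on LEADseeker. Phosphorylation ran 120 min at RT with 20 μM ATP (substrate-mix level) in Tris pH7.5/MgCl2/EGTA/Tween buffer; EDTA stop.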

[4] = test system: Ba/F3 cells containing Ros1 wild-type protein + IL-3; assay: Ba/F3-Ros1 cell proliferation counter-screen, wild-type protein in the presence of 10 ng/ml murine IL-3; assay type: cell-based; details: Mus musculus, BaF3, 24 h, read-out: BaF3-ROS1 + IL3 pIC50 (converted)
In short: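 IL-3 rescue counter-screen: WT Ros1 Ba/F3, 10 ng/ml mIL-3, 24 h compound exposure, 37 °C/5% CO2; Alamar Blue added 4 h, RFU ex540/em590.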

[5] = molecular target: Ba/F3 cells containing Ros1 with a mutation at the gatekeeper residue (L2026M) (Homo sapiens, UniProt P08922, L2026M, cells depend on it, form not given); assay: Ba/F3-Ros1 cell proliferation assay, L2026M gatekeeper mutant; assay type: cell-based, murine; details: without IL-3
Chain of Ba/F3 cells containing Ros1 with a mutation at the gatekeeper residue (L2026M) (P08922 whole entry L2026M, form open): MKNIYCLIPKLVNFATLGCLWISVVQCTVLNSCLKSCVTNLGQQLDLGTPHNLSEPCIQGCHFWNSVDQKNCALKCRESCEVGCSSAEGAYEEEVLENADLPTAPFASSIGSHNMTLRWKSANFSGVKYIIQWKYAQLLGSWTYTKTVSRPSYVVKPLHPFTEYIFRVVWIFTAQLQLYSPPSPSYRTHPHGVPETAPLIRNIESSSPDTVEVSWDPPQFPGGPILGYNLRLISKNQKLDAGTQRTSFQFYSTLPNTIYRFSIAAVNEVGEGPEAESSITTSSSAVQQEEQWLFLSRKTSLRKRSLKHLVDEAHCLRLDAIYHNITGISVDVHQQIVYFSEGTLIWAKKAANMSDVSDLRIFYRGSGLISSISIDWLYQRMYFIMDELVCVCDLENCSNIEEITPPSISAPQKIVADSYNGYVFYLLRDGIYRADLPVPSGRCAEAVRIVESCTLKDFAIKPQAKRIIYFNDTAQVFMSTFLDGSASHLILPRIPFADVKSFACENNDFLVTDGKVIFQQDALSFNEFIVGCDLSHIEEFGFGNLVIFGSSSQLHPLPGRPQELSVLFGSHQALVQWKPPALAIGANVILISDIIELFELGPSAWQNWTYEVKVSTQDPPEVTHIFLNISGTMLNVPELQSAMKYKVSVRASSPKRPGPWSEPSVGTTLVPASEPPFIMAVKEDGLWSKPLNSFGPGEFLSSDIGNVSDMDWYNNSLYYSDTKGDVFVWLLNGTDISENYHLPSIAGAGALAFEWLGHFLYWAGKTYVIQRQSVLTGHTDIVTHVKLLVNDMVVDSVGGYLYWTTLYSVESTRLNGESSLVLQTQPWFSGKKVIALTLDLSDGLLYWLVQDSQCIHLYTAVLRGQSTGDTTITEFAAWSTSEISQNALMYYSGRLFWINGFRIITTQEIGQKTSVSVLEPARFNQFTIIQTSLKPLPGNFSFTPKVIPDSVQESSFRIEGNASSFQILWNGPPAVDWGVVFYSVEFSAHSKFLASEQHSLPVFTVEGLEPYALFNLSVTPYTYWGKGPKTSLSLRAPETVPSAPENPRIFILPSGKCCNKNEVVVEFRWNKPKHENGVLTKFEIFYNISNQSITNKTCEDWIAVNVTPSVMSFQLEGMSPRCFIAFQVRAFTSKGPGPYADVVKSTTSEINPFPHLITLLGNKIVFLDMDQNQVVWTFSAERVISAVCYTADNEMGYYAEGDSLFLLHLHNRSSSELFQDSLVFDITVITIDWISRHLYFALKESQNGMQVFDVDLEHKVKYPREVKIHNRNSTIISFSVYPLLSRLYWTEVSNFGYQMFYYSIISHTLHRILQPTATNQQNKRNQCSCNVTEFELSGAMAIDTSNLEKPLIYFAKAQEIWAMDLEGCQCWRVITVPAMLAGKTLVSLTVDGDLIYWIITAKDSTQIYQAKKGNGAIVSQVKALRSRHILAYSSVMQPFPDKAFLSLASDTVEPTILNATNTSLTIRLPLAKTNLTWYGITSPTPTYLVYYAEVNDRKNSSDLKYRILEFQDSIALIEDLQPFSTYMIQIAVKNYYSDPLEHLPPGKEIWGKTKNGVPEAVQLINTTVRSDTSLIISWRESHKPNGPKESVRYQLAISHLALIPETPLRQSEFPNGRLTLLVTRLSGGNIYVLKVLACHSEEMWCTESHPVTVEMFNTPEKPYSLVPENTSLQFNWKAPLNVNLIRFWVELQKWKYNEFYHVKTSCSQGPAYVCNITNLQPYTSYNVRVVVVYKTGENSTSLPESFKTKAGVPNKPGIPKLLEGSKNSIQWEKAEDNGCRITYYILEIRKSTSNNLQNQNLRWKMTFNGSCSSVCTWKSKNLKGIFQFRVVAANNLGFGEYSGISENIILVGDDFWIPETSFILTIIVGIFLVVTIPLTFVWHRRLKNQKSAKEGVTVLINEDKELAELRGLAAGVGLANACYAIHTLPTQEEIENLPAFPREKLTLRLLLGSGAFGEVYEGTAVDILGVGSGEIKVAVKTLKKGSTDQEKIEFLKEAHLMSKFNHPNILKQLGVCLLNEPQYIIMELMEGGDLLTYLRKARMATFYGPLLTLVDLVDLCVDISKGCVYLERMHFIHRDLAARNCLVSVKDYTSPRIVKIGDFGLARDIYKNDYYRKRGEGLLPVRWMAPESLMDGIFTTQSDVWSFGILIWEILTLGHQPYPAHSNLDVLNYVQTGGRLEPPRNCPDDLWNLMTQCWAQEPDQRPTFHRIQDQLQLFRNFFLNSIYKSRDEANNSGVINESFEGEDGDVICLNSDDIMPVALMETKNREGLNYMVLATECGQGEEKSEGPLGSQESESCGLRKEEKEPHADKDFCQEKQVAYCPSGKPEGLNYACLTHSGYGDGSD
In short: as §1

[6] = HCC78 cells, 4 hours, Ros pY2274 normalized to total Ros1
[7] = counter-screen, wild-type, 10 ng/ml murine IL-3

T1 sequence (P08922 whole entry, stated change not applied): as the sequence (P08922 whole entry L2026M, form open) above, with M2026L counted along it

SMILES	melting point	BaF3-ROS1-IL3 pIC50 [1]	EC50 ([2]; HCC78 cells, 4 days, MTT)	IC50 [3, 6]	IC50 (Ros1 enzyme)	CC50 [4, 7]	EC50 [2]	IC50 ([3]; HCC78, 4 h)	CC50 [4]	Ba/F3 Ros1 L2026M (-IL-3) pIC50 [5]
CC(C)c1ccc(COc2ccc(-c3c(-c4ccncc4)nn4c3CNCC4)cc2)cc1 [Compound 173]	194 °C	6.1	1580 nM	316 nM	398 nM	> 10000 nM	–	–	–	–
CC(C)c1ncc(COc2ccc(-c3c(-c4ccncc4)nn4c3C(=O)NCC4)cc2)cn1 [Compound 103]	235 °C	6.0	–	–	1260 nM	–	2000 nM	3980 nM	> 10000 nM	–
COc1cc(-c2c(-c3ccnc(N)c3)nn3c2C(=O)N(C)CC3)ccc1OCc1ccc(C(C)C)cc1 [Compound 150]	–	7.6	–	–	7.94 nM	–	39.8 nM	10 nM	> 10000 nM	7.4
CC(C)c1ccc(COc2ccc(-c3c(-c4ccncn4)nn4c3C(=O)N(CC3(C)COC3)CC4)cc2)cc1 [Compound 163]	–	7.1	126 nM	316 nM	126 nM	> 10000 nM	–	–	–	7.1
CC(C)c1ccc(COc2ccc(-c3c(-c4ccncc4F)nn4c3C(=O)NCC4)cc2)cc1 [Compound 151]	–	7.4	–	–	31.6 nM	–	63.1 nM	20 nM	> 10000 nM	7.1
CC(C)c1ccc(COc2ccc(-c3c(-c4ccncc4)nn4c3C(=O)N(CCO)CC4)cc2)cc1F [Compound 93]	183 °C	7.2	–	–	79.4 nM	–	398 nM	–	> 10000 nM	7.0
CC(C)c1ccc(COc2ccc(-c3c(-c4ccncc4)nn4c3C(=O)N(CC(=O)N(C)C)CC4)cc2)cc1 [Compound 64]	199 °C	7.1	–	–	79.4 nM	–	631 nM	–	> 10000 nM	6.6
CC(C)Cc1ccc(COc2ccc(-c3c(-c4ccncc4)nn4c3C(=O)N(CCO)CC4)cc2)cc1 [Compound 109]	155 °C	7.1	–	–	100 nM	–	398 nM	–	> 10000 nM	7.2
Cc1ccc(COc2ccc(-c3c(-c4ccncc4)nn4c3C(=O)NCC4)cc2)cc1 [Compound 105]	259 °C	7.0	–	–	126 nM	–	158 nM	–	> 10000 nM	6.6
CC(C)c1ccc(COc2cc(F)c(-c3c(-c4ccncc4)nn4c3C(=O)NCC4)cn2)cc1 [Compound 73]	207 °C	7.9	–	–	15.8 nM	–	126 nM	–	> 10000 nM	7.4
COCCN1CCn2nc(-c3ccncc3)c(-c3ccc(OCc4ccc(C(C)C)cc4)cc3)c2C1=O [Compound 50]	167 °C	7.1	–	–	50.1 nM	–	158 nM	–	> 10000 nM	7.2
O=C1c2c(-c3ccc(OCc4ccc(C5CC5)cc4F)cc3)c(-c3ccncc3)nn2CCN1CCO [Compound 136]	183 °C	7.1	–	–	63.1 nM	–	316 nM	–	> 10000 nM	6.6
CC(C)c1ccc(COc2ccc(-c3c(-c4ccncc4)nn4c3C(=O)NCC4)cc2Cl)cc1 [Compound 25]	251 °C	6.8	–	–	126 nM	–	501 nM	–	> 10000 nM	6.5
CC(C)c1ccc(COc2ccc(-c3c(-c4ccncc4)nn4c3CN(C(=O)CN(C)C)CC4)cc2)cc1 [Compound 181]	–	5.7	2000 nM	1260 nM	794 nM	5010 nM	–	–	–	–
CC(C)c1ccc(COc2ccc(-c3c(-c4ccncc4)nn4c3CN(CC(=O)N(C)C)CC4)cc2)cc1 [Compound 177]	95 °C	6.9	398 nM	–	200 nM	> 10000 nM	–	–	–	6.6
Cc1cc(C(C)C)ccc1COc1ccc(-c2c(-c3ccncc3)nn3c2C(=O)NCC3)cc1 [Compound 78]	247 °C	7.1	794 nM	–	251 nM	> 10000 nM	–	–	–	6.9
CC(C)c1ccc(C2CNc3cc(-c4c(-c5ccncc5)nn5c4C(=O)NCC5)ccc3O2)cc1 (racemic) [Compound 226]	252 °C	7.1	501 nM	–	631 nM	> 10000 nM	–	–	–	6.8
CC(C)c1ccc(COc2ccc(-c3c(-c4ccncc4)nn4c3C(=O)N(CC3COC(C)(C)O3)CC4)cc2)cc1 (centres unmarked) [Compound 42]	114 °C	6.7	1260 nM	–	398 nM	> 10000 nM	–	–	–	6.3

Source: patent US10280170B2, “Substituted 4,5,6,7-tetrahydro-pyrazolo[1,5-a]pyrazine derivatives and 5,6,7,8-tetrahydro-4H-pyrazolo[1,5-a][1,4]diazepine derivatives as Ros1 inhibitors” (Janssen Pharmaceutica NV, priority 2014, dated 2019)
